Assay results published in US10568317B2 (Biomatrica, Inc., priority 2015, dated 2020).

What was measured:
Type in all cases: cell-based
[1] = test system: erythrocytes in whole blood; test: Erythrocyte sedimentation in whole blood: sucralose concentration and other saccharides, visual analysis (Example 2); settings: K2EDTA blood, 1 hour and 6 hours
Protocol: Fresh blood was collected into BD K2EDTA VACUTAINER® tubes and pooled. 952 μL of fresh blood was aliquot into 2 mL centrifuge tubes, each containing 48 μL of sucralose at the indicated concentration in FIG. 2, or the indicated saccharide (ML848, a di-chlorinated monosaccharide, or DG783, a mono-fluorinated monosaccharide) at the indicated concentration. Sucralose solutions of different concentrations were prepared by dilution of 0.5 M sucralose to 10 mM in water. […] 48 μL of PBS and 0.9% saline served as controls. Final concentrations of sucralose or the indicated saccharide shown in FIG. 2 were as follows (from left to right): 24 mM sucralose, 12 mM sucralose, 6.24 mM sucralose, 2.88 mM sucralose, 1.44 mM sucralose, 0.96 mM sucralose, 0.48 mM sucralose, 24 mM sucrose, 2.4 mM sucrose, 24 mM trehalose, 24 mM melezitose, 4.8 mM ML848, and 24 mM DG783.
(§1) The filled centrifuge tubes were gently inverted five times to mix and stored upright on the benchtop at approximately 25° C. Tubes were photographed at 1 hour (FIG. 2, upper panel) and 6 hours (FIG. 2, center panel) against a white background for visual analysis of sedimentation rate. After 7 hours of storage, tubes were centrifuged for 20 min at 3000 rpm to determine the effect of hemolysis on sedimentation rate by visual analysis (FIG. 2, lower panel).

[2] = test system: erythrocytes in whole blood; test: Erythrocyte sedimentation in whole blood after addition of sucralose powder, visual analysis (Example 3)
Protocol: Fresh blood was collected into BD K2EDTA VACUTAINER® tubes and pooled. 1 mL of fresh blood was aliquotted into 2 mL centrifuge tubes containing sucralose powder. Final concentrations of sucralose ranged from 7.5 mM to 100 mM, corresponding to 3.0 mg to 39.8 mg per mL of blood. The no formulation (NF) control sample received no addition of sucralose. Tubes were inverted at least five times until no visible undissolved material remained at the bottom of the tubes. Tubes were stored upright on the benchtop at approximately 25° C. Tubes were photographed at 1 hour (FIG. 3, upper panel) and 6 hours (FIG. 3, lower panel) against a white background for visual analysis of sedimentation rate.

[3] = test system: erythrocytes in whole blood; test: Hemolysis by centrifugation after 7 hours of storage, visual analysis (Example 2)
Protocol: as §1

[4] = test system: erythrocytes in whole blood; test: Erythrocyte sedimentation in whole blood: sucralose compared to polyols and halogenated polyols, visual analysis (Example 5); settings: 0.5 M solution, final 24 mM sucralose, K2EDTA blood, 2 hours
Protocol: Fresh blood was collected into BD K2EDTA VACUTAINER® tubes and pooled. 952 μL of fresh blood was aliquot into 2 mL centrifuge tubes containing 48 μL of a solution of 0.5 M sucralose, the indicated polyol, or the indicated halogenated polyol. Additives at 0.25 M were adjusted to 300 mOsmol with NaCl. PBS and no formulation (NF) added served as controls. The filled centrifuge tubes were gently inverted five times to mix and stored upright on the benchtop at approximately 25° C. Tubes were photographed at 2 hours against a white background for visual analysis of sedimentation rate.

[5] = test system: erythrocytes in whole blood; test: Erythrocyte sedimentation in whole blood after addition of sucralose solution, visual analysis (Example 1); settings: about 24 mM sucralose (0.5 M solution, blood:solution 20:1), K2EDTA blood, ambient temperature, 6 hours and 24 hours
Protocol: Fresh blood was collected into BD K2EDTA VACUTAINER® tubes and pooled. Blood and a solution of 0.5 M sucralose were mixed at a ratio of 20:1 by aliquotting 952 μL of fresh blood into 2 mL centrifuge tubes containing 48 μL of formulation, resulting in a concentration of about 24 mM sucralose. 48 μL of PBS and 0.9% saline served as controls. Blood with no formulation (NF) added served as an additional control. The filled centrifuge tubes were gently inverted five times to mix and stored upright on the benchtop at approximately 25° C. Tubes were photographed at 0 hours (FIG. 1A), 6 hours (FIG. 1B), and 24 hours (FIG. 1C) against a white background for visual analysis of sedimentation rate.

[6] = test system: erythrocytes in whole blood; test: Erythrocyte sedimentation in whole blood collected with different anticoagulants, visual analysis (Example 4); settings: final 24 mM sucralose; ACD-B, K3EDTA, NaHep, LiHep, NaF, SPS, K2EDTA tubes; 2 hours and 8 hours
Source text: To screen for collection conditions, fresh blood was collected into a series of BD VACUTAINER® or Greiner Bio-One VACUETTE® low-volume blood collection tubes containing different anticoagulants, including acid citrate dextrose solution B (ACD-B), tri-potassium ethylenediaminetetraacetic acid (K3EDTA), sodium heparin (NaHep), lithium heparin (LiHep), sodium fluoride (NaF), and sodium polyanethol sulfonate (SPS). Collection into tubes containing di-potassium ethylenediaminetetraacetic acid (K2EDTA) served as a control. 952 μL of fresh blood was aliquot into 2 mL centrifuge tubes containing 48 μL of 0.5 M sucralose or PBS. No formulation (NF) added served as an additional control. The filled centrifuge tubes were gently inverted five times to mix and stored upright on the benchtop at approximately 25° C. Tubes were photographed at 2 hours (FIG. 4, upper panel) and 8 hours (FIG. 4, lower panel) against a white background for visual analysis of sedimentation rate. […] By contrast, addition of PBS had no effect on erythrocyte sedimentation rate.

[7] = other saccharides, final: 24 mM and 2.4 mM sucrose, 24 mM trehalose, 24 mM melezitose, 4.8 mM ML848, 24 mM DG783

Compound: OC[C@H]1O[C@@](CO)(O[C@H]2O[C@H](CO)[C@@H](O)[C@H](O)[C@H]2O)[C@@H](O[C@H]2O[C@H](CO)[C@@H](O)[C@H](O)[C@H]2O)[C@@H]1O [melezitose]
- lower sedimentation rate of erythrocytes [1, 7]: not observed

Compound: OC[C@H]1O[C@@](CO)(O[C@H]2O[C@H](CO)[C@@H](O)[C@H](O)[C@H]2O)[C@@H](O)[C@@H]1O [sucrose]
- lower sedimentation rate of erythrocytes [1, 7]: not observed

Compound: OC[C@H]1O[C@H](O[C@H]2O[C@H](CO)[C@@H](O)[C@H](O)[C@H]2O)[C@H](O)[C@@H](O)[C@@H]1O [trehalose]
- lower sedimentation rate of erythrocytes [1, 7]: not observed

Compound: OC[C@H]1O[C@H](O[C@]2(CCl)O[C@H](CCl)[C@@H](O)[C@@H]2O)[C@H](O)[C@@H](O)[C@H]1Cl [sucralose, 1,6-dichloro-1,6-dideoxy-β-D-fructofuranosyl-4-chloro-4-deoxy-α-D-galactopyranoside]
- state of whole blood samples at lower concentrations of sucralose ([2]; sucralose powder below 24 mM, ambient temperatures, 6 hours): separation of the erythrocyte and plasma layers
- sucralose concentration at which homogeneity of whole blood samples was observed ([2]; sucralose powder, ambient temperatures, 6 hours): ≥ 24 mM
- rate of erythrocyte sedimentation versus sucralose concentration ([2]; sucralose powder, final 7.5 mM to 100 mM, K2EDTA blood, 1 hour and 6 hours): inversely proportional to the concentration of sucralose
- hemolysis of erythrocytes (coloration of plasma layer after centrifugation) ([3]; high concentration of sucralose, 7 hours of storage, centrifuged 20 min at 3000 rpm): not due to excessive hemolysis
- final sucralose concentrations at which significant hemolysis was not seen ([3]; whole blood): ≤ 40 mM
- lower sedimentation rate of erythrocytes ([1]; final sucralose concentrations below 5 mM): not observed
- sedimentation rate of erythrocytes ([1]; high concentrations of sucralose, ambient temperature): lower sedimentation rate
- erythrocyte sedimentation rate [4]: reduced erythrocyte sedimentation rate
- sedimentation rate of the erythrocytes compared to NF, PBS or saline [5]: lower sedimentation rate
- erythrocyte sedimentation rate for each anticoagulant [6]: reduction of erythrocyte sedimentation rate
